Data as given in patent US12404262B2 (priority 2021, dated 2025).

Settings: 1.0% DMSO, 24-hour incubation at ambient temperature, maximum theoretical 100 μM; for pH 2 solubility: 0.1N HCl, first value of the cell; for pH 7 solubility: 1×PBS buffer (pH 7.4), second value of the cell

| pH 2 solubility | pH 7 solubility | Compound |
| --- | --- | --- |
| 1/1 μM | 1/1 μM | CC(=O)N(c1nn(CC(F)(F)F)c2c(-c3ccc(C#CC(C)(C)S(C)(=O)=O)nc3[C@H](Cc3cc(F)cc(F)c3)NC(=O)Cn3nc(C(F)(F)F)c4c3C(F)(F)[C@@H]3C[C@H]43)ccc(Cl)c12)S(C)(=O)=O [Compound 1, N—((S)-1-(3-(4-chloro-3-(N-(methylsulfonyl)acetamido)-1-(2,2,2-trifluoroethyl)-1H-indazol-7-yl)-6-(3-methyl-3-(methylsulfonyl)but-1-yn-1-yl)pyridin-2-yl)-2-(3,5-difluorophenyl)ethyl)-2-((3bS,4aR)-5,5-difluoro-3-(trifluoromethyl)-3b,4,4a,5-tetrahydro-1H-cyclopropa[3,4]cyclopenta[1,2-c]pyrazol-1-yl)acetamide] |
| 33 μM | 7 μM | CC(C)(C#Cc1ccc(-c2ccc(Cl)c3c(N(C(=O)CN4CCOCC4)S(C)(=O)=O)nn(CC(F)(F)F)c23)c([C@H](Cc2cc(F)cc(F)c2)NC(=O)Cn2nc(C(F)(F)F)c3c2C(F)(F)[C@@H]2C[C@H]32)n1)S(C)(=O)=O [Compound 4, (N-(4-chloro-7-(2-((S)-1-(2-((3bS,4aR)-5,5-difluoro-3-(trifluoromethyl)-3b,4,4a,5-tetrahydro-1H-cyclopropa[3,4]cyclopenta[1,2-c]pyrazol-1-yl)acetamido)-2-(3,5-difluorophenyl)ethyl)-6-(3-methyl-3-(methylsulfonyl)but-1-yn-1-yl)pyridin-3-yl)-1-(2,2,2-trifluoroethyl)-1H-indazol-3-yl)-N-(methylsulfonyl)-2-morpholinoacetamide)] |
| 39 μM | 9 μM | CC(C)(C#Cc1ccc(-c2ccc(Cl)c3c(N(C(=O)CCN4CCOCC4)S(C)(=O)=O)nn(CC(F)(F)F)c23)c([C@H](Cc2cc(F)cc(F)c2)NC(=O)Cn2nc(C(F)(F)F)c3c2C(F)(F)[C@@H]2C[C@H]32)n1)S(C)(=O)=O [Compound 5, N-(4-chloro-7-(2-((S)-1-(2-((3bS,4aR)-5,5-difluoro-3-(trifluoromethyl)-3b,4,4a,5-tetrahydro-1H-cyclopropa [3,4]cyclopenta [1,2-c]pyrazol-1-yl)acetamido)-2-(3,5-difluorophenyl)ethyl)-6-(3-methyl-3-(methylsulfonyl)but-1-yn-1-yl)pyridin-3-yl)-1-(2,2,2-trifluoroethyl)-1H-indazol-3-yl)-N-(methylsulfonyl)-3-morpholinopropanamide] |
| 50 μM | 3 μM | CN1CCN(CC(=O)N(c2nn(CC(F)(F)F)c3c(-c4ccc(C#CC(C)(C)S(C)(=O)=O)nc4[C@H](Cc4cc(F)cc(F)c4)NC(=O)Cn4nc(C(F)(F)F)c5c4C(F)(F)[C@@H]4C[C@H]54)ccc(Cl)c23)S(C)(=O)=O)CC1 [Compound 6, (N-(4-chloro-7-(2-((S)-1-(2-((3bS,4aR)-5,5-difluoro-3-(trifluoromethyl)-3b,4,4a,5-tetrahydro-1H-cyclopropa[3,4]cyclopenta[1,2-c]pyrazol-1-yl)acetamido)-2-(3,5-difluorophenyl)ethyl)-6-(3-methyl-3-(methylsulfonyl)but-1-yn-1-yl)pyridin-3-yl)-1-(2,2,2-trifluoroethyl)-1H-indazol-3-yl)-2-(4-methylpiperazin-1-yl)-N-(methylsulfonyl)acetamide)] |
| 65 μM | 7 μM | CC(C)(C#Cc1ccc(-c2ccc(Cl)c3c(N(C(=O)CN4CCNCC4)S(C)(=O)=O)nn(CC(F)(F)F)c23)c([C@H](Cc2cc(F)cc(F)c2)NC(=O)Cn2nc(C(F)(F)F)c3c2C(F)(F)[C@@H]2C[C@H]32)n1)S(C)(=O)=O [Compound 7, (N-(4-chloro-7-(2-((S)-1-(2-((3bS,4aR)-5,5-difluoro-3-(trifluoromethyl)-3b,4,4a,5-tetrahydro-1H-cyclopropa[3,4]cyclopenta[1,2-c]pyrazol-1-yl)acetamido)-2-(3,5-difluorophenyl)ethyl)-6-(3-methyl-3-(methylsulfonyl)but-1-yn-1-yl)pyridin-3-yl)-1-(2,2,2-trifluoroethyl)-1H-indazol-3-yl)-N-(methylsulfonyl)-2-(piperazin-1-yl)acetamide)] |
| 57 μM | 6 μM | CC(C)(C#Cc1ccc(-c2ccc(Cl)c3c(N(C(=O)CN4CCN(C(=N)N)CC4)S(C)(=O)=O)nn(CC(F)(F)F)c23)c([C@H](Cc2cc(F)cc(F)c2)NC(=O)Cn2nc(C(F)(F)F)c3c2C(F)(F)[C@@H]2C[C@H]32)n1)S(C)(=O)=O [Compound 8, 2-(4-carbamimidoylpiperazin-1-yl)-N-(4-chloro-7-(2-((S)-1-(2-((3bS,4aR)-5,5-difluoro-3-(trifluoromethyl)-3b,4,4a,5-tetrahydro-1H-cyclopropa[3,4]cyclopenta[1,2-c]pyrazol-1-yl)acetamido)-2-(3,5-difluorophenyl)ethyl)-6-(3-methyl-3-(methylsulfonyl)but-1-yn-1-yl)pyridin-3-yl)-1-(2,2,2-trifluoroethyl)-1H-indazol-3-yl)-N-(methylsulfonyl)acetamide] |
| 2 μM | 21 μM | CC(C)(C#Cc1ccc(-c2ccc(Cl)c3c(N(C(=O)CCN4CCNCC4)S(C)(=O)=O)nn(CC(F)(F)F)c23)c([C@H](Cc2cc(F)cc(F)c2)NC(=O)Cn2nc(C(F)(F)F)c3c2C(F)(F)[C@@H]2C[C@H]32)n1)S(C)(=O)=O [Compound 9, N-(4-chloro-7-(2-((S)-1-(2-((3bS,4aR)-5,5-difluoro-3-(trifluoromethyl)-3b,4,4a,5-tetrahydro-1H-cyclopropa[3,4]cyclopenta[1,2-c]pyrazol-1-yl)acetamido)-2-(3,5-difluorophenyl)ethyl)-6-(3-methyl-3-(methylsulfonyl)but-1-yn-1-yl)pyridin-3-yl)-1-(2,2,2-trifluoroethyl)-1H-indazol-3-yl)-N-(methylsulfonyl)-3-(piperazin-1-yl)propanamide] |
| 2/2 μM | 2/2 μM | CC(C)(C#Cc1ccc(-c2ccc(Cl)c3c(N(C(=O)C(N)=O)S(C)(=O)=O)nn(CC(F)(F)F)c23)c([C@H](Cc2cc(F)cc(F)c2)NC(=O)Cn2nc(C(F)(F)F)c3c2C(F)(F)[C@@H]2C[C@H]32)n1)S(C)(=O)=O [Compound 10, N1-(4-chloro-7-(2-((S)-1-(2-((3bS,4aR)-5,5-difluoro-3-(trifluoromethyl)-3b,4,4a,5-tetrahydro-1H-cyclopropa[3,4]cyclopenta[1,2-c]pyrazol-1-yl)acetamido)-2-(3,5-difluorophenyl)ethyl)-6-(3-methyl-3-(methylsulfonyl)but-1-yn-1-yl)pyridin-3-yl)-1-(2,2,2-trifluoroethyl)-1H-indazol-3-yl)-N1-(methylsulfonyl)oxalamide] |
| 5 μM | 36 μM | CC(C)(C#Cc1ccc(-c2ccc(Cl)c3c(N(C(=O)C(=O)NCCP(=O)(O)O)S(C)(=O)=O)nn(CC(F)(F)F)c23)c([C@H](Cc2cc(F)cc(F)c2)NC(=O)Cn2nc(C(F)(F)F)c3c2C(F)(F)[C@@H]2C[C@H]32)n1)S(C)(=O)=O [Compound 11, (2-(2-(N-(4-chloro-7-(2-((S)-1-(2-((3bS,4aR)-5,5-difluoro-3-(trifluoromethyl)-3b,4,4a,5-tetrahydro-1H-cyclopropa[3,4]cyclopenta[1,2-c]pyrazol-1-yl)acetamido)-2-(3,5-difluorophenyl)ethyl)-6-(3-methyl-3-(methylsulfonyl)but-1-yn-1-yl)pyridin-3-yl)-1-(2,2,2-trifluoroethyl)-1H-indazol-3-yl)methylsulfonamido)-2-oxoacetamido)ethyl)phosphonic acid] |
| 10/10 μM | 10/10 μM | CC(C)(C#Cc1ccc(-c2ccc(Cl)c3c(N(C(=O)C(=O)N[C@@H](CC(=O)O)C(=O)O)S(C)(=O)=O)nn(CC(F)(F)F)c23)c([C@H](Cc2cc(F)cc(F)c2)NC(=O)Cn2nc(C(F)(F)F)c3c2C(F)(F)[C@@H]2C[C@H]32)n1)S(C)(=O)=O [Compound 12, (2-(N-(4-chloro-7-(2-((S)-1-(2-((3bS,4aR)-5,5-difluoro-3-(trifluoromethyl)-3b,4,4a,5-tetrahydro-1H-cyclopropa[3,4]cyclopenta[1,2-c]pyrazol-1-yl)acetamido)-2-(3,5-difluorophenyl)ethyl)-6-(3-methyl-3-(methylsulfonyl)but-1-yn-1-yl)pyridin-3-yl)-1-(2,2,2-trifluoroethyl)-1H-indazol-3-yl)methylsulfonamido)-2-oxoacetyl)-L-aspartic acid] |
| 1/1 μM | 1/1 μM | CCOC(=O)C(=O)N(c1nn(CC(F)(F)F)c2c(-c3ccc(C#CC(C)(C)S(C)(=O)=O)nc3[C@H](Cc3cc(F)cc(F)c3)NC(=O)Cn3nc(C(F)(F)F)c4c3C(F)(F)[C@@H]3C[C@H]43)ccc(Cl)c12)S(C)(=O)=O [Compound 14, ethyl 2-(N-(4-chloro-7-(2-((S)-1-(2-((3bS,4aR)-5,5-difluoro-3-(trifluoromethyl)-3b,4,4a,5-tetrahydro-1H-cyclopropa[3,4]cyclopenta[1,2-c]pyrazol-1-yl)acetamido)-2-(3,5-difluorophenyl)ethyl)-6-(3-methyl-3-(methylsulfonyl)but-1-yn-1-yl)pyridin-3-yl)-1-(2,2,2-trifluoroethyl)-1H-indazol-3-yl)methylsulfonamido)-2-oxoacetate] |
| 1/1 μM | 1/1 μM | COC(=O)C(=O)N(c1nn(CC(F)(F)F)c2c(-c3ccc(C#CC(C)(C)S(C)(=O)=O)nc3[C@H](Cc3cc(F)cc(F)c3)NC(=O)Cn3nc(C(F)(F)F)c4c3C(F)(F)[C@@H]3C[C@H]43)ccc(Cl)c12)S(C)(=O)=O [Compound 15, methyl 2-(N-(4-chloro-7-(2-((S)-1-(2-((3bS,4aR)-5,5-difluoro-3-(trifluoromethyl)-3b,4,4a,5-tetrahydro-1H-cyclopropa[3,4]cyclopenta[1,2-c]pyrazol-1-yl)acetamido)-2-(3,5-difluorophenyl)ethyl)-6-(3-methyl-3-(methylsulfonyl)but-1-yn-1-yl)pyridin-3-yl)-1-(2,2,2-trifluoroethyl)-1H-indazol-3-yl)methylsulfonamido)-2-oxoacetate] |
